# Target: T1, human ACC2 (Homo sapiens, UniProt O00763)
# T1 construct: made in house; host or cells: insect cells (baculoviral expression system)
# Assay: ACC2 assay, spectrophotometric 384 well assay (NADH-linked, coupled lactate dehydrogenase/pyruvate kinase)
# Format: biochemical
# Details: ACC2 assay, hACC2 construct lacking 128 N-terminal amino acids, 25° C., 340 nm; read-out: IC50
# Description: Spectrophotometric 384 Well Assay
# Malonyl CoA formation by acetyl CoA carboxylases is stoichometrically linked to the consumption of ATP. ACC2 activity is measured in a NADH-linked kinetic method measuring ADP generated during the ACC reaction using a coupled lactate dehydrogenase/pyruvate kinase reaction.
# For biological testing, a human ACC2 construct which lacks the 128 amino acids at the N-terminus for increased solubility (nt 385-6966 in Genbank entry AJ575592) is cloned. The protein is then expressed in insect cells using a baculoviral expression system. Protein purification is performed by anion exchange.
# All compounds are dissolved in dimethyl sulfoxide (DMSO) to a concentration of 10 mM.
# Assay reactions are then carried out in 384-well plates, with hACC2 in an appropriate dilution and at final assay concentrations (f.c.) of 100 mM Tris (pH 7.5), 10 mM trisodium citrate, 25 mM KHCO3, 10 mM MgCl2, 0.5 mg/mL BSA, 3.75 mM reduced L-glutathione, 15 U/mL lactate dehydrogenase, 0.5 mM phosphoenolpyruvate, 15 U/mL pyruvate kinase, compounds at different concentrations at final DMSO concentrations of 1%.
# The enzymatic reaction is then started by addition of a mixture of NADH, acetyl Coenzyme A (both 200 μM f.c.) and ATP (500 uM f.c.). The decrease of the optical density (slope S) is then determined at 25° C. at a wavelength of 340 nm over 15 minutes in a spectrophotometric reader.
# Each assay microtiter plate contains wells with vehicle instead of compound as controls for the non-inhibited enzyme (100% CTL; ‘HIGH’) and wells without acetyl-CoA as controls for non-specific NADH degradation (0% CTL; ‘LOW’).
# The slope S is used for calculation of % CTL=(S(compound)−S('LOW'))/(S('HIGH')−S('LOW'))*100. Compounds will give values between 100% CTL (no inhibition) and 0% CTL (complete inhibition).
# For IC50 value determination, the sample slope in the presence of the test compound after subtraction of the low controls (S(compound)−S('LOW')) are used.
# An IC50 value is derived from the compound slopes at different dosages after subtraction of the low controls (S(compound)−S('LOW')) by non-linear regression curve fitting (equation y=(A+((B−A)/(1+((C/x)^D))))).
# T1 sequence (O00763 129-2458 limits assumed): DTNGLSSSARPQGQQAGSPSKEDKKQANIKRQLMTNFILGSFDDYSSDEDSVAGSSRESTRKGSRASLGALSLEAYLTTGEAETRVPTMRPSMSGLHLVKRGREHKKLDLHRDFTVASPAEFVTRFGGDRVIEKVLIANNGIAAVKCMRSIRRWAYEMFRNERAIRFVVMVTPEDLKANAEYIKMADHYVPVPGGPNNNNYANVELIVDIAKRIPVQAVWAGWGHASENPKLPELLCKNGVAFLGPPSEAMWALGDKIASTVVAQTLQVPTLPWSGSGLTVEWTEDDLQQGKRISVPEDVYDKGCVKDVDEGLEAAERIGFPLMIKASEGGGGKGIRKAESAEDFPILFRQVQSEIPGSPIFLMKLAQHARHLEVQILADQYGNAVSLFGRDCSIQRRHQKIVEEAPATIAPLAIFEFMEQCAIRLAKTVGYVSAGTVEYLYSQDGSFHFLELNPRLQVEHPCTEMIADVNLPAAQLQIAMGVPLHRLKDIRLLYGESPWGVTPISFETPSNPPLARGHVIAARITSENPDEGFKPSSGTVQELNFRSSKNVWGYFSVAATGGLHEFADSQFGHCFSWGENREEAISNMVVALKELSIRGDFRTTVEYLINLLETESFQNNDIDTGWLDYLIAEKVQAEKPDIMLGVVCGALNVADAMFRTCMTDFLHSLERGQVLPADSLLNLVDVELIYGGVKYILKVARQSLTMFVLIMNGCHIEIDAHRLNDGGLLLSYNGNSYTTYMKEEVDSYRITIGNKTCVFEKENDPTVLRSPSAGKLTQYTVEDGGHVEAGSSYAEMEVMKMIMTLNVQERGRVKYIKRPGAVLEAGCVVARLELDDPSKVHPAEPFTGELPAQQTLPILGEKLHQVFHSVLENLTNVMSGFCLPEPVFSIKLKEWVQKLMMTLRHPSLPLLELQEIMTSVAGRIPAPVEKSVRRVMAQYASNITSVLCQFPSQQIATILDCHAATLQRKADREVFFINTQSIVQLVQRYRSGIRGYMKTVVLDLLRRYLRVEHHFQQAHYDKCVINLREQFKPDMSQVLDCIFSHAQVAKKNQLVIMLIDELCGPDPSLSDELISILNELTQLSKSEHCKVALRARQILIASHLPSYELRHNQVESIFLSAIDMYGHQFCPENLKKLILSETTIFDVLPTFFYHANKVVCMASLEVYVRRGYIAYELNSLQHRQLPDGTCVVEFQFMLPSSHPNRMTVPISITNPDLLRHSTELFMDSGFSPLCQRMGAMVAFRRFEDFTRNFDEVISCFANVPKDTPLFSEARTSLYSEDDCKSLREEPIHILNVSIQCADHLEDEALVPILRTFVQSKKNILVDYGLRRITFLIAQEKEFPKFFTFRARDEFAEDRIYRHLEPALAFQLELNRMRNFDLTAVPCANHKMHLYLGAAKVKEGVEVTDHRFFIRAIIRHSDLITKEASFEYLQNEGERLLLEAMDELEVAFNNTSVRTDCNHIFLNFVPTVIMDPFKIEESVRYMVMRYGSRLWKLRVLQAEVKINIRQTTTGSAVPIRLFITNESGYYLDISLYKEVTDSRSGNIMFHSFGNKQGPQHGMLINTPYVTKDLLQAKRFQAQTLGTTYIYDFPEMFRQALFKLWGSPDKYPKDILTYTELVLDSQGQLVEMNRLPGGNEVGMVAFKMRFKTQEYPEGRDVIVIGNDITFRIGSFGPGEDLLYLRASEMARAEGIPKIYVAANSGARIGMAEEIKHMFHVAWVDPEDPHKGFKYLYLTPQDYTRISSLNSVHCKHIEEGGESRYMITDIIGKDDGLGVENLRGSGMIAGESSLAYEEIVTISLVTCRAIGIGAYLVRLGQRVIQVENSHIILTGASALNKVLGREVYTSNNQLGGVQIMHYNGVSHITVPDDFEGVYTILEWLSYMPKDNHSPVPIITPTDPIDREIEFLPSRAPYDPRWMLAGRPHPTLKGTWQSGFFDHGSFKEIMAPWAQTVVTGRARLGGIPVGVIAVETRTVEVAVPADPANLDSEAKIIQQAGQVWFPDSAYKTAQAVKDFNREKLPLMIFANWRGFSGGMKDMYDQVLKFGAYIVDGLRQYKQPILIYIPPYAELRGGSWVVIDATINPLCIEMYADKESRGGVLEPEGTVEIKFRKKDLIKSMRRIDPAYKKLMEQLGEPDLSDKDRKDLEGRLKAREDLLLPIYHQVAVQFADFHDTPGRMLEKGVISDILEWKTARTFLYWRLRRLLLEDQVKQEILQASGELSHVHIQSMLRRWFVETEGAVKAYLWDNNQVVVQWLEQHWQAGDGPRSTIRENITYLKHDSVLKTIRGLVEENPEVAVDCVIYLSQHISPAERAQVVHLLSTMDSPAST
row,Structure (SMILES),IC50 [nM]
1,CC(=O)N[C@@H](C)c1ccc(C2CCN(c3ccc4c(c3)ncn4C)CC2)cc1 [Example 1.72],23700
2,CC(=O)N[C@@H](C)c1ccc(C2CCN(c3cc4c(cc3C#N)OCO4)CC2)cc1 [Example 1.73],3400
3,CC(=O)N[C@@H](C)c1ccc(C2CCN(c3ccc(OC(C)C)cc3F)CC2)cc1 [Example 1.74],100
4,CC(=O)N[C@@H](C)c1ccc(C2CCN(c3ccc4[nH]cc(C)c4c3)CC2)cc1 [Example 1.75],2200
5,CC(=O)N[C@@H](C)c1ccc(C2CCN(c3ccc4[nH]c(C)cc4c3)CC2)cc1 [Example 1.76],1900
6,C[C@H](NC(=O)C1CC1)c1ccc(C2CCN(c3cccc(OCC4CC4)c3)CC2)cc1 [Example 1.77],900
7,CC(C)Oc1cccc(N2CCC(c3ccc([C@H](C)NC(=O)C4CC4)cc3)CC2)c1 [Example 1.78],3400
8,C[C@H](NC(=O)C1CC1)c1ccc(C2CCN(c3ccc(OCC4CC4)cc3F)CC2)cc1 [Example 1.79],180
9,C[C@H](NC(=O)N(C)C)c1ccc(C2CCN(c3cccc(OCC4CC4)c3)CC2)cc1 [Example 1.80],530
10,CC(C)Oc1cccc(N2CCC(c3ccc([C@H](C)NC(=O)N(C)C)cc3)CC2)c1 [Example 1.81],280
11,CCOc1ccc(N2CCC(c3ccc([C@H](C)NC(=O)C4CC4)cc3)CC2)c(F)c1 [Example 1.82],160
12,CCCOc1ccc(N2CCC(c3ccc([C@H](C)NC(=O)C4CC4)cc3)CC2)c(F)c1 [Example 1.83],100
13,C[C@H](NC(=O)N(C)C)c1ccc(C2CCN(c3ccc(OCC4CC4)cc3F)CC2)cc1 [Example 1.84],180
14,CCOc1ccc(N2CCC(c3ccc([C@H](C)NC(=O)N(C)C)cc3)CC2)c(F)c1 [Example 1.85],140
15,CCCOc1ccc(N2CCC(c3ccc([C@H](C)NC(=O)N(C)C)cc3)CC2)c(F)c1 [Example 1.86],210
16,C[C@H](NC(=O)C1CC1)c1ccc(C2CCN(c3ccc4c(c3)OCC(C)(C)CO4)CC2)cc1 [Example 1.87],1200
17,CC(=O)N[C@@H](C)c1ccc(C2CCN(c3cccc(OC4CCC4)c3)CC2)cc1 [Example 1.88],540
18,CCCOc1cccc(N2CCC(c3ccc([C@H](C)NC(C)=O)cc3)CC2)c1 [Example 1.89],390
19,CCC(C)Oc1cccc(N2CCC(c3ccc([C@H](C)NC(C)=O)cc3)CC2)c1 (some centres unmarked) [Example 1.90],230
20,Cc1cc(OC2CC2)ccc1N1CCC(c2ccc([C@H](C)NC(=O)C3CC3)cc2)CC1 [Example 1.91],600
21,CC(=O)N[C@@H](C)c1ccc(C2CCN(c3ccc(OC4CC4)cc3C)CC2)cc1 [Example 1.92],120
22,COc1cc(OC2CC2)ccc1N1CCC(c2ccc([C@H](C)NC(=O)C3CC3)cc2)CC1 [Example 1.93],580

row,Structure (SMILES),IC50 [nM]
1,CC(=O)N[C@@H](C)c1ccc(C2CCN(c3ccc(OC4CC4)cc3OC3CC3)CC2)cc1 [Example 1.94],210
2,COc1ccc(N2CCC(c3ccc([C@H](C)NC(C)=O)cc3)CC2)c(F)c1 [Example 1.96],360
3,COCCOc1ccc(N2CCC(c3ccc([C@H](C)NC(C)=O)cc3)CC2)c(F)c1 [Example 1.97],530
4,CC(=O)N[C@@H](C)c1ccc(C2CCN(c3cccc4c3OCCO4)CC2)cc1 [Example 1.98],470
5,COCCCOc1ccc(N2CCC(c3ccc([C@H](C)NC(C)=O)cc3)CC2)c(F)c1 [Example 1.99],330
6,CCOc1cnc(N2CCC(c3ccc([C@H](C)NC(C)=O)cc3)CC2)c(F)c1 [Example 1.100],520
7,CC(=O)N[C@@H](C)c1ccc(C2CCN(c3ccc(OCCC4CC4)cc3F)CC2)cc1 [Example 1.101],50
8,CC(=O)N[C@@H](C)c1ccc(C2CCN(c3ncc(OCC4CC4)cc3F)CC2)cc1 [Example 1.104],200
9,CCCOc1cnc(N2CCC(c3ccc([C@H](C)NC(C)=O)cc3)CC2)c(F)c1 [Example 1.105],240
10,COc1cc(OC2CC2)ccc1N1CCC(c2ccc([C@H](C)NC(=O)N(C)C)cc2)CC1 [Example 1.106],170
11,C[C@H](NC(=O)N(C)C)c1ccc(C2CCN(c3ccnc(Oc4cncnc4)c3)CC2)cc1 [Example 1.107],520
12,C[C@H](NC(=O)C1CC1)c1ccc(C2CCN(c3ccnc(Oc4cncnc4)c3)CC2)cc1 [Example 1.108],930
13,CC(=O)N[C@@H](C)c1ccc(C2CCN(c3ccc(OCCn4ccnc4)cc3)CC2)cc1 [Example 1.109],3100
14,CC(=O)N[C@@H](C)c1ccc(C2CCN(c3ccc(Oc4cncnc4)nc3)CC2)cc1 [Example 1.110],4500
15,C[C@H](NC(=O)N(C)C)c1ccc(C2CCN(c3ccc(OC4CC4)cc3)CC2)cc1 [Example 1.112],210
16,COC(=O)N[C@@H](C)c1ccc(C2CCN(c3ccc(OC4CC4)cc3)CC2)cc1 [Example 1.113],140
17,CC(C)COc1ccc(N2CCC(c3ccc([C@H](C)NC(=O)C4CC4)cc3)CC2)cc1 [Example 1.114],130
18,CCCOc1ccc(N2CCC(c3ccc([C@H](C)NC(=O)C4CC4)cc3)CC2)c(C#N)c1 [Example 1.115],110
19,CCCOc1ccc(N2CCC(c3ccc([C@H](C)NC(=O)C4CC4)cc3)CC2)c(OC)c1 [Example 1.116],770
20,C[C@H](NC(=O)C1CC1)c1ccc(C2CCN(c3ccc(OC4CCCC4)cc3)CC2)cc1 [Example 1.117],60
21,CC(C)COc1ccc(N2CCC(c3ccc([C@H](C)NC(=O)C4CC4)cc3)CC2)nc1 [Example 1.118],120
22,CC(C)Oc1ccc(N2CCC(c3ccc([C@H](C)NC(=O)C4CC4)cc3)CC2)cc1 [Example 1.119],260

row,Structure (SMILES),IC50 [nM]
1,CC(C)Oc1cc(N2CCC(c3ccc([C@H](C)NC(=O)C4CC4)cc3)CC2)ccn1 [Example 1.120],250
2,CCOc1ccc(N2CCC(c3ccc([C@H](C)NC(=O)C4CC4)cc3)CC2)c(OCC)c1 [Example 1.121],8100
3,CC(C)COc1ccc(N2CCC(c3ccc([C@H](C)NC(=O)N(C)C)cc3)CC2)cc1 [Example 1.122],120
4,CCCOc1ccc(N2CCC(c3ccc([C@H](C)NC(=O)N(C)C)cc3)CC2)c(C#N)c1 [Example 1.123],70
5,CCCOc1ccc(N2CCC(c3ccc([C@H](C)NC(=O)N(C)C)cc3)CC2)c(OC)c1 [Example 1.124],180
6,C[C@H](NC(=O)N(C)C)c1ccc(C2CCN(c3ccc(OC4CCCC4)cc3)CC2)cc1 [Example 1.125],100
7,CC(C)COc1ccc(N2CCC(c3ccc([C@H](C)NC(=O)N(C)C)cc3)CC2)nc1 [Example 1.126],230
8,CC(C)Oc1ccc(N2CCC(c3ccc([C@H](C)NC(=O)N(C)C)cc3)CC2)cc1 [Example 1.127],330
9,CC(C)Oc1cc(N2CCC(c3ccc([C@H](C)NC(=O)N(C)C)cc3)CC2)ccn1 [Example 1.128],120
10,CCOc1ccc(N2CCC(c3ccc([C@H](C)NC(=O)N(C)C)cc3)CC2)c(OCC)c1 [Example 1.129],3500
11,CCC(C)Oc1ccc(N2CCC(c3ccc([C@H](C)NC(=O)OC)cc3)CC2)cc1 (some centres unmarked) [Example 1.130],80
12,CCCOc1ccc(N2CCC(c3ccc([C@H](C)NC(=O)OC)cc3)CC2)c(C#N)c1 [Example 1.131],190
13,CCCOc1ccc(N2CCC(c3ccc([C@H](C)NC(=O)OC)cc3)CC2)c(OC)c1 [Example 1.132],840
14,COC(=O)N[C@@H](C)c1ccc(C2CCN(c3ccc(OC4CCCC4)cc3)CC2)cc1 [Example 1.133],130
15,COC(=O)N[C@@H](C)c1ccc(C2CCN(c3ccc(OCC(C)C)cn3)CC2)cc1 [Example 1.134],280
16,COC(=O)N[C@@H](C)c1ccc(C2CCN(c3ccc(OC(C)C)cc3)CC2)cc1 [Example 1.135],340
17,COC(=O)N[C@@H](C)c1ccc(C2CCN(c3ccnc(OC(C)C)c3)CC2)cc1 [Example 1.136],500
18,CCOc1ccc(N2CCC(c3ccc([C@H](C)NC(=O)OC)cc3)CC2)c(OCC)c1 [Example 1.137],16000
19,C[C@H](NC(=O)N(C)C)c1ccc(C2CCN(c3ccnc(Oc4ccccc4)c3)CC2)cc1 [Example 1.138],160
20,C[C@H](NC(=O)C1CC1)c1ccc(C2CCN(c3ccc(OCC4CC4(F)F)cc3)CC2)cc1 (some centres unmarked) [Example 1.139],70
21,C[C@H](NC(=O)N(C)C)c1ccc(C2CCN(c3ccc(OCC4CC4(F)F)cc3)CC2)cc1 (some centres unmarked) [Example 1.140],90
